Calls of active or inactive are those of the source. No cut-off for these calls is given here.
Assays:
[1] = test system: MGC-803; experiment: Induction of apoptosis in human MGC-803 cells assessed as decrease in Bcl-2 level; format: functional, cell-based; conditions: dose 5-15 nM, DDE = dose-dependent effect
[2] = test system: MGC-803; experiment: Inhibition of ERK signalling pathway in human MGC-803 cells assessed as downregulation of MEK1/2 phosphorylation at 5 to 15 nM incubated for 48 hrs; format: cell-based; conditions: dose 5-15 nM
[3] = test system: MGC-803; experiment: Inhibition of ERK signalling pathway in human MGC-803 cells assessed as reduction in downstream substrate MSK1 phosphorylation at 5 to 15 nM incubated for 48 hrs; format: cell-based; conditions: dose 5-15 nM
[4] = test system: HGC-27; experiment: Inhibition of ERK signalling pathway in human HGC-27 cells assessed as reduction in downstream substrate MSK1 phosphorylation at 10 to 30 nM incubated for 48 hrs; format: cell-based; conditions: dose 10-30 nM
[5] = test system: MGC-803; experiment: Downregulation of MMP-9 expression in human MGC-803 cells incubated for 48 hrs; format: functional, cell-based; conditions: dose 5-15 nM, DDE = dose-dependent effect
[6] = test system: NCI-H520; experiment: Antiproliferative activity against human NCI-H520 cells assessed as reduction in cell viability incubated for 48 hrs by MTT assay; format: functional, cell-based; conditions: NCI-H520, 48 h
[7] = test system: MGC-803; experiment: Inhibition of ERK signalling pathway in human MGC-803 cells assessed as downregulation of c-Raf phosphorylation at 5 to 15 nM incubated for 48 hrs; format: cell-based; conditions: dose 5-15 nM
[8] = test system: MDA-MB-231; experiment: Antiproliferative activity against human MDA-MB-231 cells assessed as reduction in cell viability incubated for 48 hrs by MTT assay; format: functional, cell-based; conditions: MDA-MB-231, 48 h
[9] = test system: HGC-27; experiment: Inhibition of ERK signalling pathway in human HGC-27 cells assessed as downregulation of ERK1/2 phosphorylation at 10 to 30 nM incubated for 48 hrs; format: cell-based; conditions: dose 10-30 nM
[10] = test system: DU-145; experiment: Antiproliferative activity against human DU-145 cells assessed as reduction in cell viability incubated for 48 hrs by MTT assay; format: functional, cell-based; conditions: DU-145, 48 h
[11] = test system: HGC-27; experiment: Downregulation of cdc2 phosphorylation at Thr14 residue in human HGC-27 cells at 10 to 30 nM incubated for 48 hrs; format: functional, cell-based; conditions: dose 10-30 nM
[12] = test system: HGC-27; experiment: Downregulation of Wee1 expression in human HGC-27 cells at 10 to 30 nM incubated for 48 hrs; format: functional, cell-based; conditions: dose 10-30 nM
[13] = test system: HGC-27; experiment: Inhibition of p38 signalling pathway in human HGC-27 cells assessed as reduction in downstream substrate HSP-27 phosphorylation at 10 to 30 nM incubated for 48 hrs; format: cell-based; conditions: dose 10-30 nM
[14] = test system: HGC-27; experiment: Inhibition of ERK signalling pathway in human HGC-27 cells assessed as reduction in downstream substrate p90RSK phosphorylation at 10 to 30 nM incubated for 48 hrs; format: cell-based; conditions: dose 10-30 nM
[15] = test system: HGC-27; experiment: Induction of apoptosis in human HGC-27 cells assessed as upregulation of cleavage caspase 8 level; format: functional, cell-based; conditions: dose 10-30 nM, DDE = dose-dependent effect
[16] = test system: MGC-803; experiment: Induction of cell cycle arrest in human MGC-803 cells assessed as accumulation of cells at G2/M phase at 15 nM incubated for 48 hrs by propidium iodide staining based flow cytometry analysis (reference value: 24%); format: functional
[17] = target: c-Jun N-terminal kinase, JNK (Homo sapiens) (UniProt P45983+P53779+P45984); experiment: Inhibition of JNK signalling pathway in human HGC-27 cells assessed as reduction in JNK phosphorylation at 10 to 30 nM incubated for 48 hrs; format: cell-based; conditions: dose 10-30 nM
[18] = test system: HGC-27; experiment: Induction of apoptosis in human HGC-27 cells assessed as nuclear concentration at 10 to 30 nM incubated for 48 hrs by DAPI staining based analysis; format: functional, cell-based; conditions: dose 10-30 nM
[19] = test system: MGC-803; experiment: Downregulation of phosphorylated Elk-1 expression in human MGC-803 cells incubated for 48 hrs; format: functional, cell-based; conditions: dose 5-15 nM, DDE = dose-dependent effect
[20] = test system: HGC-27; experiment: Downregulation of vimentin expression in human HGC-27 cells incubated for 48 hrs; format: functional, cell-based; conditions: dose 10-30 nM, DDE = dose-dependent effect
[21] = test system: CWR22R; experiment: Antiproliferative activity against human 22Rv1 cells assessed as reduction in cell viability incubated for 48 hrs by MTT assay; format: functional, cell-based; conditions: 22Rv1, 48 h
[22] = test system: MGC-803; experiment: Antiproliferative activity against human MGC-803 cells assessed as reduction in cell viability incubated for 48 hrs by MTT assay; format: functional, cell-based
[23] = test system: EC9706; experiment: Antiproliferative activity against human EC9706 cells assessed as reduction in cell viability incubated for 48 hrs by MTT assay; format: functional, cell-based; conditions: EC9706, 48 h
[24] = test system: MGC-803; experiment: Induction of apoptosis in human MGC-803 cells assessed as increase in cleavage caspase 7 level; format: functional, cell-based; conditions: dose 5-15 nM, DDE = dose-dependent effect
[25] = test system: HCT-116; experiment: cells; conditions: Homo sapiens, HCT-116, 48 h
[26] = test system: MCF7; experiment: Antiproliferative activity against human MCF7 cells assessed as reduction in cell viability incubated for 48 hrs by MTT assay; format: functional, cell-based; conditions: MCF7, 48 h
[27] = target: Tubulin (Homo sapiens) (UniProt P68371+Q9H4B7+P0DPH7+P68366+Q13509+Q71U36+P04350+Q3ZCM7+P07437+P68363+Q9BQE3+Q6PEY2+Q13885+Q9BVA1+Q9BUF5); experiment: Disruption of microtubule network in human HGC-27 cells assessed as cytoskeleton disruption at 10 to 30 nM measured after 48 hrs by DAPI staining based fluorescence microscopic analysis; format: cell-based; conditions: dose 10-30 nM
[28] = test system: HGC-27; experiment: Inhibition of p38 signalling pathway in human HGC-27 cells assessed as reduction in MKK3/6 phosphorylation at 10 to 30 nM incubated for 48 hrs; format: cell-based; conditions: dose 10-30 nM
[29] = test system: MGC-803; experiment: Induction of apoptosis in human MGC-803 cells assessed as nuclear fragmentation at 5 to 15 nM incubated for 48 hrs by DAPI staining based analysis; format: functional, cell-based; conditions: dose 5-15 nM
[30] = test system: MGC-803; experiment: Antiproliferative activity against human MGC-803 cells assessed as inhibition of cell growth at 5 to 15 nM incubated for 60 hrs; format: functional, cell-based; conditions: dose 5-15 nM
[31] = test system: HGC-27; experiment: Induction of apoptosis in human HGC-27 cells assessed as decrease in cell density at 10 to 30 nM incubated for 48 hrs by bright field imaging analysis; format: functional, cell-based; conditions: dose 10-30 nM
[32] = test system: MGC-803; experiment: Downregulation of ATF4 expression in human MGC-803 cells incubated for 48 hrs; format: functional, cell-based; conditions: dose 5-15 nM, DDE = dose-dependent effect
[33] = test system: SGC-7901; experiment: Antiproliferative activity against human SGC-7901 cells assessed as reduction in cell viability incubated for 48 hrs by MTT assay; format: functional, cell-based; conditions: SGC-7901, 48 h
[34] = test system: HGC-27; experiment: Induction of apoptosis in human HGC-27 cells assessed as decrease in XIAP level; format: functional, cell-based; conditions: dose 10-30 nM, DDE = dose-dependent effect
[35] = test system: ECa-109 cell line; experiment: Antiproliferative activity against human EC109 cells assessed as reduction in cell viability incubated for 48 hrs by MTT assay; format: functional, cell-based; conditions: ECa-109, 48 h
[36] = Induction of mitochondria mediated intrinsic apoptosis in human HGC-27 cells assessed as early apoptotic cells at 30 nM measured after 48 hrs by flow cytometry analysis (Rvb= 6.4%); format: functional
[37] = Induction of mitochondria mediated intrinsic apoptosis in human MGC-803 cells assessed as late apoptotic cells at 10 nM measured after 48 hrs by flow cytometry analysis (Rvb= 98.2%); format: functional
[38] = test system: HGC-27; experiment: Induction of cell cycle arrest in human HGC-27 cells assessed as accumulation of cells at G2/M phase at 15 nM incubated for 48 hrs by propidium iodide staining based flow cytometry analysis (reference value: 11%); format: functional

IC50 [6]: 33.4 nM
IC50 [8]: 79.3 nM
IC50 [10]: 74 nM
inhibition [17]: Active
IC50 ([22]; Homo sapiens, MGC-803, 48 h): 11 nM
IC50 ([22]; mgc-803): 11.5 nM
IC50 [25]: 33 nM
IC50 [26]: 435 nM
Activity [27]: Active
IC50 [33]: 52.3 nM
Compound: CN(c1ccc2c(ccn2C)c1)c1cc(=O)oc2ccccc12
Activity [1]: Dde
inhibition [2]: Active
inhibition [3]: Active
inhibition [4]: Active
Activity [5]: Dde
inhibition [7]: Active
inhibition [9]: Active
Activity [11]: Active
Activity [12]: Active
inhibition [13]: Active
inhibition [14]: Active
Activity [15]: Dde
Activity [16]: 53%
Activity [18]: Active
Activity [19]: Dde
Activity [20]: Dde
IC50 [21]: 558 nM
IC50 [23]: 21.8 nM
Activity [24]: Dde
inhibition [28]: Active
Activity [29]: Active
inhibition [30]: Active
Activity [31]: Active
Activity [32]: Dde
Activity [34]: Dde
IC50 [35]: 33.8 nM
Activity [36]: 25.5%
Activity [37]: 92.5%
Activity [38]: 85%

— ChEMBL document CHEMBL5137024, “Discovery of novel coumarin-indole derivatives as tubulin polymerization inhibitors with potent anti-gastric cancer activities” (Eur J Med Chem, 2022)
